Data published in the supplement of paper PMC4862054.

Columns and labels:
Assay in all cases: normalised viability (% of control), CellTiter-Blue; higher = more viable cells (about 100 = DMSO control)
Details in all cases: incubation time: 72 h
HCC1143 = test system: HCC1143
In short: (§1)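 After 72 h on compound-loaded 384-well plates, breast cancer cell lines received 2.5 µl CellTiter-Blue reagent for 2 h at 37 °C. Fluorescence at 560/590 nm was scaled per plate so that vehicle was 100 and a positive kill control was 0. The value stands for normalised viability at a single listed concentration of the series.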

DU-4475 = test system: DU-4475
In short: as §1

CAL-148 = test system: CAL-148
In short: as §1

CAL-85-1 = test system: CAL-85-1
In short: as §1

BT-474 = test system: BT-474
In short: as §1

HDQ-P1 = test system: HDQ-P1
In short: as §1

MDA-MB-231 = test system: MDA-MB-231
In short: as §1

SK-BR-3 = test system: SK-BR-3
In short: as §1

HCC1937 = test system: HCC1937
In short: as §1

BT-549 = test system: BT-549
In short: as §1

MDA-MB-468 = test system: MDA-MB-468
In short: as §1

Compound: Cc1cc(Nc2nc(N[C@@H](C)c3ncc(F)cn3)ncc2Cl)[nH]n1 [AZD1480]
- normalised viability (HCC1143; 1 nM): 96%
- normalised viability (HCC1143; 100 nM): 102%
- normalised viability (HCC1143; 1000 nM): 71.8%
- normalised viability (DU-4475; 0.3 nM): 102%
- normalised viability (DU-4475; 3 nM): 104%
- normalised viability (DU-4475; 10 nM): 95.8%
- normalised viability (CAL-148; 0.3 nM): 93.8%
- normalised viability (CAL-148; 3 nM): 97.4%
- normalised viability (CAL-148; 10 nM): 99.3%
- normalised viability (CAL-85-1; 0.3 nM): 102%
- normalised viability (CAL-85-1; 3 nM): 91.4%
- normalised viability (CAL-85-1; 10 nM): 96.4%
- normalised viability (BT-474; 1 nM): 137%
- normalised viability (BT-474; 100 nM): 108%
- normalised viability (BT-474; 1000 nM): 112%
- normalised viability (HDQ-P1; 0.3 nM): 106%
- normalised viability (HDQ-P1; 3 nM): 108%
- normalised viability (HDQ-P1; 10 nM): 107%
- normalised viability (MDA-MB-231; 1 nM): 107%
- normalised viability (MDA-MB-231; 100 nM): 95.5%
- normalised viability (MDA-MB-231; 1000 nM): 85.7%
- normalised viability (SK-BR-3; 1 nM): 108%
- normalised viability (SK-BR-3; 100 nM): 126%
- normalised viability (SK-BR-3; 1000 nM): 102%
- normalised viability (HCC1937; 1 nM): 112%
- normalised viability (HCC1937; 100 nM): 83.9%
- normalised viability (HCC1937; 1000 nM): 83.4%
- normalised viability (BT-549; 1 nM): 91.7%
- normalised viability (BT-549; 100 nM): 108%
- normalised viability (BT-549; 1000 nM): 90.4%
- normalised viability (MDA-MB-468; 1 nM): 109%
- normalised viability (MDA-MB-468; 100 nM): 103%
- normalised viability (MDA-MB-468; 1000 nM): 84.9%

Compound: CO[C@@]12[C@H](COC(N)=O)C3=C(C(=O)C(C)=C(N)C3=O)N1C[C@@H]1N[C@@H]12 [Mitomycin C]
- normalised viability (HCC1143; 10 nM): 78.3%
- normalised viability (HCC1143; 1000 nM): 72.4%
- normalised viability (HCC1143; 10000 nM): 20.4%
- normalised viability (DU-4475; 3 nM): 105%
- normalised viability (DU-4475; 30 nM): 83.6%
- normalised viability (DU-4475; 100 nM): 91%
- normalised viability (CAL-148; 3 nM): 97.3%
- normalised viability (CAL-148; 30 nM): 102%
- normalised viability (CAL-148; 100 nM): 100%
- normalised viability (CAL-85-1; 3 nM): 104%
- normalised viability (CAL-85-1; 30 nM): 98.4%
- normalised viability (CAL-85-1; 100 nM): 105%
- normalised viability (BT-474; 10 nM): 112%
- normalised viability (BT-474; 1000 nM): 95.5%
- normalised viability (BT-474; 10000 nM): 53.7%
- normalised viability (HDQ-P1; 3 nM): 105%
- normalised viability (HDQ-P1; 30 nM): 96.3%
- normalised viability (HDQ-P1; 100 nM): 104%
- normalised viability (MDA-MB-231; 10 nM): 108%
- normalised viability (MDA-MB-231; 1000 nM): 76.1%
- normalised viability (MDA-MB-231; 10000 nM): 47.3%
- normalised viability (SK-BR-3; 10 nM): 99.2%
- normalised viability (SK-BR-3; 1000 nM): 61.5%
- normalised viability (SK-BR-3; 10000 nM): 10.4%
- normalised viability (HCC1937; 10 nM): 88.4%
- normalised viability (HCC1937; 1000 nM): 45.4%
- normalised viability (HCC1937; 10000 nM): 21.6%
- normalised viability (BT-549; 10 nM): 85%
- normalised viability (BT-549; 1000 nM): 84.9%
- normalised viability (BT-549; 10000 nM): 14.1%
- normalised viability (MDA-MB-468; 10 nM): 95.3%
- normalised viability (MDA-MB-468; 1000 nM): 78.5%
- normalised viability (MDA-MB-468; 10000 nM): 8.5%
